Legend:
Assay type in all cases: in vivo
Aristotle bell pepper = conditions: in vivo
Procedure: (§1) The following experiments were performed in a green house during the fall of 2007 at GCREC, Balm, University of Florida. Fifteen products, at 3 different application rates were examined. The plot size was 2-gallon pots. Crop set-up, procedures and variables were as follows.
(§2) Transplants of ‘Florida-47’ tomato and ‘Aristotle’ bell pepper plants in the 4-true leaf stage (about 6 inches tall) were planted in 2-gal pots on Aug. 27, 2007. Pots were filled with a commercially available planting medium. This medium was selected based on the mineral composition of the products to be applied without providing significant nutritional inputs to the crops. Irrigation was provided with drip lines delivering between 0.50 and 0.33 gal/day/pot for tomato and bell pepper, respectively, and the crops were irrigated three times per day. No foliar pesticides were necessary.
(§3) There were four control treatments corresponding to each target micronutrient in which non-Fe, non-Mn, non-Zn or non-Cu pots received all other essential nutrients under non-limiting conditions.
(§4) Treatments were applied at three rates (high, medium and low) obtained from the estimated concentration of Zn, Fe, Cu, and Mn foliarly-applied in tomato and bell pepper in field situations (Table 1). Products were weighed and dissolved in 200 ml of deionized water with a non-ionic surfactant and applied to the newly-matured open leaves of each crop at 3 and 7 weeks after transplant (WAT). Treated pots were isolated during application to avoid cross-contamination of other treatments.
(§5) Medium nutrient concentration was determined 1 week before treatment. The mineral composition of the medium was 26.8 ppm NH4—N, 49 ppm NO3—N, 15.8 ppm P, 91.2 ppm K, 82.3 ppm Ca, 58.2 ppm Mg, 23.9 ppm Na, 125.6 ppm S, 1.33 ppm Fe, 0.39 ppm Mn, 0.35 ppm Zn, 0.05 pp, Cu, 0.04 ppm B, 0 ppm Mo, 0.73 ppm Al, and 12.1 ppm Si. The pH of the medium was 5.36 and the electric conductivity was 1.38 mS/cm. The foliar tissue analysis was performed at 6 WAT and the concentration of N, P, K, Mg, Ca, S, B, Zn, Mn, Fe, and Cu was determined by a commercial laboratory. Plant toxicity was determined at 4 WAT by using a 0-10 visual scale, where 0=no visible damage and 10=total plant death. Marketable fruit weight was collected 2 times in bell pepper and 4 times in tomato following USDA standards.
(§6) Data were analyzed using a general linear model, and means were separated using orthogonal contrasts at the 5% significance level.

Florida-47 tomato = conditions: in vivo
Procedure: as §1, §2, §3, §4, §5, §6

[1] = system: Patriot bell pepper plants; test: Marketable yield, open-field bell pepper (Examples 7-10)
Procedure: (§7) The following experiments were performed in open-field plots during the spring of 2008 at GCREC, Balm, University of Florida. Four products delivering Zn (BIOX-Z), Mn (BIOX-M), Cu (BIOX-Cu), and Fe (BIOX-Fe) were compared to other micronutrient supplement formulations in tomato and bell pepper plants.
(§8) The plot sizes for the tomato plants were 30-ft plots (15 plants per plot) and 15-ft plots were used for the bell pepper plants (30 plants per plot). Crop set-up, procedures and variables were as follows.
(§9) Transplants of ‘Tygress’ tomato plants and ‘Patriot’ bell pepper plants in the 4-true leaf stage (about 6 inches tall) were planted in raised beds in open-field plots. The cross-section of each raised bed was 28 inches wide at the top, 32 inches wide at the base, and 8 inches tall. Irrigation and non-micronutrient fertilizer were provided daily through two drip lines per bed (0.45 gal/100 ft bed/min) at recommended rates for tomato and bell pepper production in Florida. […] The height of the plants for each of the treatment groups was measured at 3 weeks after transplantation (WAT), just prior to treatment with the experimental foliar fertilizers.
(§10) All foliar fertilizers except BIOX-CM were applied to the various treatment groups at 3 weeks after transplantation (WAT) and again at 5 WAT. The BIOX-CM treatment was applied at 4 and 5 WAT. The working water volume was 60 gal/acre and a non-ionic surfactant (Ad-Spray 80) was added in the amount of 2 pints/100 gal water. All plots were sprayed with sprayers pressurized at 25 psi and the canopies of both crops were covered with the micronutrient solutions. Treated plots were isolated during foliar fertilizer application to avoid the cross-contamination of other treatments on adjoining plots.
(§11) Leaf samples were collected from the most recent mature leaves from each plant at 6 WAT (2 weeks after initial treatment). Foliar tissue analysis was performed by a commercial laboratory to determine the concentration of N, P, K, Mg, Ca, B, Zn, Mn, Fe, and Cu. Tomato marketable fruit weights were collected at 10 and 12 WAT, and the fruits were graded according to USDA standards. Pepper marketable fruit weights were determined beginning at 5 WAT over 5 weekly harvests. Fruit mineral analysis (N, P, K, Mg, Ca, B, Zn, Mn, Fe, and Cu) was performed on samples from the tomato harvest.
(§12) The experimental design was a randomized complete block design with 5 replications for each treatment. All comparison data were analyzed using a general linear model and the means of each treatment were separated with a Fisher's protected LSD test at the 5% significance level.

Tygress tomato plants [2] = test: Foliar nutrient concentration at 6 WAT, open-field tomato (Examples 7-10)
Procedure: as §7, §8, §9, §10, §11, §12

Tygress tomato plants [3] = test: Marketable yield, open-field tomato (Examples 7-10)
Procedure: as §7, §8, §9, §10, §11, §12

Tygress tomato plants [4] = test: Nutrient concentration of tomato fruits at 10 WAT, open field (Examples 7-10)
Procedure: as §7, §8, §9, §10, §11, §12

[5] = system: Patriot bell pepper plants; test: Foliar nutrient concentration at 6 WAT, open-field bell pepper (Examples 7-10)
Procedure: as §7, §8, §9, §10, §11, §12

[6] = open field, lb/acre/season: BIOX-Z 1.3, Cu 6.7, M 23.0, Fe 3.2, INC 4.0, INZ 0.6, CM 10.0, GZ 1.0, GF 4.0, EDZ 1.4, EDM 23.0
[7] = 6 WAT, open field, product rate as Table 17
[8] = 10 WAT, open field, product rate as Table 17

Compound: NCC(=O)[O-].NCC(=O)[O-].[Zn+2] [BIOX-GZ, zinc glycinate]
- Pepper toxicity (Aristotle bell pepper): 0
- Tomato toxicity (Florida-47 tomato): 0
- Marketable yield, Bell Pepper ([1]; in vivo): 6.3 ton/acre
- Foliar B concentration of tomato plants (Tygress tomato plants [2]; in vivo): 44 ppm
- Foliar Ca concentration of tomato plants (Tygress tomato plants [2]; in vivo): 1.8%
- Foliar Cu concentration of tomato plants (Tygress tomato plants [2]; in vivo): 482 ppm
- Foliar Fe concentration of tomato plants (Tygress tomato plants [2]; in vivo): 94 ppm
- Foliar K concentration of tomato plants (Tygress tomato plants [2]; in vivo): 5.0%
- Foliar Mg concentration of tomato plants (Tygress tomato plants [2]; in vivo): 0.61%
- Foliar Mn concentration of tomato plants (Tygress tomato plants [2]; in vivo): 278 ppm
- Foliar N concentration of tomato plants (Tygress tomato plants [2]; in vivo): 4.6%
- Foliar P concentration of tomato plants (Tygress tomato plants [2]; in vivo): 0.22%
- Foliar Zn concentration of tomato plants (Tygress tomato plants [2]; in vivo): 369 b ppm
- Marketable yield, Tomato (Tygress tomato plants [3]; in vivo): 16.8 ton/acre
- Tomato marketable yield compared to control, statement (Tygress tomato plants [3]; in vivo): significantly higher than the control tomato harvest
- B concentration of tomato fruits (Tygress tomato plants [4]; in vivo): 23 ppm
- Ca concentration of tomato fruits (Tygress tomato plants [4]; in vivo): 0.2%
- Cu concentration of tomato fruits (Tygress tomato plants [4]; in vivo): 23 ppm
- Fe concentration of tomato fruits (Tygress tomato plants [4]; in vivo): 87 ppm
- K concentration of tomato fruits (Tygress tomato plants [4]; in vivo): 7.8%
- Mg concentration of tomato fruits (Tygress tomato plants [4]; in vivo): 0.37%
- Mn concentration of tomato fruits (Tygress tomato plants [4]; in vivo): 43 ppm
- N concentration of tomato fruits (Tygress tomato plants [4]; in vivo): 4.3%
- P concentration of tomato fruits (Tygress tomato plants [4]; in vivo): 0.61%
- Zn concentration of tomato fruits (Tygress tomato plants [4]; in vivo): 379 ppm
- Foliar B concentration of bell pepper plants ([5]; in vivo): 59 ppm
- Foliar Ca concentration of bell pepper plants ([5]; in vivo): 4.2%
- Foliar Cu concentration of bell pepper plants ([5]; in vivo): 429 ppm
- Foliar Fe concentration of bell pepper plants ([5]; in vivo): 118 ppm
- Foliar K concentration of bell pepper plants ([5]; in vivo): 3.4%
- Foliar Mg concentration of bell pepper plants ([5]; in vivo): 0.49%
- Foliar Mn concentration of bell pepper plants ([5]; in vivo): 282 ppm
- Foliar N concentration of bell pepper plants ([5]; in vivo): 4.4%
- Foliar P concentration of bell pepper plants ([5]; in vivo): 0.24%
- Foliar Zn concentration of bell pepper plants ([5]; in vivo): 145 a ppm
- Foliar Zn concentration of bell pepper plants compared to control, statement ([5]; in vivo): significantly higher foliar concentration of Zn

Compound: iron glycinate [BIOX-GF]
- Pepper toxicity (Aristotle bell pepper): 0
- Tomato toxicity (Florida-47 tomato): 0
- Marketable yield, Bell Pepper ([1]; in vivo): 7.0 ton/acre
- Foliar B concentration of tomato plants (Tygress tomato plants [2]; in vivo): 21 ppm
- Foliar Ca concentration of tomato plants (Tygress tomato plants [2]; in vivo): 0.2%
- Foliar Cu concentration of tomato plants (Tygress tomato plants [2]; in vivo): 22 ppm
- Foliar Fe concentration of tomato plants (Tygress tomato plants [2]; in vivo): 85 ppm
- Foliar K concentration of tomato plants (Tygress tomato plants [2]; in vivo): 8.5%
- Foliar Mg concentration of tomato plants (Tygress tomato plants [2]; in vivo): 0.38%
- Foliar Mn concentration of tomato plants (Tygress tomato plants [2]; in vivo): 42 ppm
- Foliar N concentration of tomato plants (Tygress tomato plants [2]; in vivo): 4.3%
- Foliar P concentration of tomato plants (Tygress tomato plants [2]; in vivo): 0.71%
- Foliar Zn concentration of tomato plants (Tygress tomato plants [2]; in vivo): 332 ppm
- Marketable yield, Tomato (Tygress tomato plants [3]; in vivo): 18.5 a ton/acre
- Tomato marketable yield compared to control, statement (Tygress tomato plants [3]; in vivo): significantly higher tomato marketable yield compared to control
- Nutrient concentration of tomato fruits: B (Tygress tomato plants [4]; in vivo): 21 ppm
- Nutrient concentration of tomato fruits: Ca (Tygress tomato plants [4]; in vivo): 0.2%
- Nutrient concentration of tomato fruits: Cu (Tygress tomato plants [4]; in vivo): 22 ppm
- Nutrient concentration of tomato fruits: Fe (Tygress tomato plants [4]; in vivo): 85 ppm
- Nutrient concentration of tomato fruits: K (Tygress tomato plants [4]; in vivo): 8.5%
- Nutrient concentration of tomato fruits: Mg (Tygress tomato plants [4]; in vivo): 0.38%
- Nutrient concentration of tomato fruits: Mn (Tygress tomato plants [4]; in vivo): 42 ppm
- Nutrient concentration of tomato fruits: N (Tygress tomato plants [4]; in vivo): 4.3%
- Nutrient concentration of tomato fruits: P (Tygress tomato plants [4]; in vivo): 0.71%
- Nutrient concentration of tomato fruits: Zn (Tygress tomato plants [4]; in vivo): 332 ppm
- Foliar nutrient concentration: B ([5]; in vivo): 43 ppm
- Foliar nutrient concentration: Ca ([5]; in vivo): 1.8%
- Foliar nutrient concentration: Cu ([5]; in vivo): 453 ppm
- Foliar nutrient concentration: Fe ([5]; in vivo): 305 ppm
- Foliar nutrient concentration: K ([5]; in vivo): 5.7%
- Foliar nutrient concentration: Mg ([5]; in vivo): 0.58%
- Foliar nutrient concentration: Mn ([5]; in vivo): 266 ppm
- Foliar nutrient concentration: N ([5]; in vivo): 5.0%
- Foliar nutrient concentration: P ([5]; in vivo): 0.21%
- Foliar nutrient concentration: Zn ([5]; in vivo): 322 ppm

Compound: manganese citrate [BIOX-CM]
- Marketable yield, Bell Pepper [1, 6]: 8.0 ton/acre
- Foliar concentration of Mn of tomato plants, statement (Tygress tomato plants [2]; 6 WAT, open field): significantly higher foliar concentration of Mn compared to control
- Foliar B concentration of tomato plants (Tygress tomato plants [2]; [7]): 43 ppm
- Foliar Ca concentration of tomato plants (Tygress tomato plants [2]; [7]): 1.8%
- Foliar Cu concentration of tomato plants (Tygress tomato plants [2]; [7]): 326 ppm
- Foliar Fe concentration of tomato plants (Tygress tomato plants [2]; [7]): 85 ppm
- Foliar K concentration of tomato plants (Tygress tomato plants [2]; [7]): 5.0 b %
- Foliar Mg concentration of tomato plants (Tygress tomato plants [2]; [7]): 0.66%
- Foliar Mn concentration of tomato plants (Tygress tomato plants [2]; [7]): 272 b ppm
- Foliar N concentration of tomato plants (Tygress tomato plants [2]; [7]): 5.1%
- Foliar P concentration of tomato plants (Tygress tomato plants [2]; [7]): 0.24 a %
- Foliar Zn concentration of tomato plants (Tygress tomato plants [2]; [7]): 242 b ppm
- Marketable yield, Tomato (Tygress tomato plants [3]; [6]): 13.9 b ton/acre
- B concentration of tomato fruits (Tygress tomato plants [4]; [8]): 22 ppm
- Ca concentration of tomato fruits (Tygress tomato plants [4]; [8]): 0.2%
- Cu concentration of tomato fruits (Tygress tomato plants [4]; [8]): 21 b ppm
- Fe concentration of tomato fruits (Tygress tomato plants [4]; [8]): 73 b ppm
- K concentration of tomato fruits (Tygress tomato plants [4]; [8]): 7.9%
- Mg concentration of tomato fruits (Tygress tomato plants [4]; [8]): 0.37%
- Mn concentration of tomato fruits (Tygress tomato plants [4]; [8]): 40 b ppm
- N concentration of tomato fruits (Tygress tomato plants [4]; [8]): 4.2%
- P concentration of tomato fruits (Tygress tomato plants [4]; [8]): 0.57%
- Zn concentration of tomato fruits (Tygress tomato plants [4]; [8]): 217 b ppm
- Foliar B concentration of bell pepper plants [5, 7]: 63 ppm
- Foliar Ca concentration of bell pepper plants [5, 7]: 4.2%
- Foliar Cu concentration of bell pepper plants [5, 7]: 364 ppm
- Foliar Fe concentration of bell pepper plants [5, 7]: 121 ppm
- Foliar K concentration of bell pepper plants [5, 7]: 3.6%
- Foliar Mg concentration of bell pepper plants [5, 7]: 0.47%
- Foliar Mn concentration of bell pepper plants [5, 7]: 594 ppm
- Foliar N concentration of bell pepper plants [5, 7]: 4.3%
- Foliar P concentration of bell pepper plants [5, 7]: 0.23%
- Foliar Zn concentration of bell pepper plants [5, 7]: 44 ppm

— patent US20110098177A1, “METHODS AND COMPOSITIONS OF PLANT MICRONUTRIENTS” (NOVUS INTERNATIONAL INC., priority 2006, published 2011)
